Results as given in patent US8853173B2, “Synthetic glycolipid and use thereof” (RIKEN, priority 2010, dated 2014).

Key:
NKT cells [1] = conditions: cited from earlier work
NKT cells [2] = conditions: cited from earlier work; remark: listed apart in the source
NKT cells [3] = conditions: cited from earlier work; remark: listed apart in the source
NKT cells of mouse = conditions: cited from earlier work
human NKT cells = conditions: cited from earlier work
NKT cells [4] = conditions: cited from earlier work; remark: listed apart in the source
NKT cells [5] = assay: Influence of synthetic glycolipid on cytokine production of NKT cells: IFN-γ in mouse plasma after tail vein administration; assay type: in vivo, C57BL/6 mice; conditions: 100 μg/kg body weight, Cytometric Bead Array, data in FIG. 1-3
Description: A solution of each of α-GalCer (KRN7000), compound F and compound H in dimethyl sulfoxide (DMSO) was prepared at a concentration of 1 mg/mL. The above-mentioned DMSO solution was diluted with saline (manufactured by Otsuka Pharmaceutical Co., Ltd.) containing 0.5% tween 20 (Bio-Rad) such that the dose became 100 μg/kg body weight when 200 μL per mouse was administered from the tail vein.
The prepared solutions (200 μL) of compounds F and H were respectively injected to C57BL/6 mice (5 mice per group) from the tail vein. As a control substance, α-GalCer (KRN7000) was used, and a solution (200 μL) of α-GalCer (KRN7000) prepared in the same manner such that the dose became 100 μg/kg body weight was injected into the tail vein. The group administered with saline (200 μL) containing 0.5% tween 20 (medium) was used as a negative control. The blood (80 μL) immediately before administration and after administration (after lapse of the time indicated in FIGS. 1-3) was collected from the orbital sinus and plasma was prepared.
The IFN-γ content of the plasma before administration and after administration (after lapse of the time indicated in FIG. 1) was measured by Cytometric Bead Array system (BD Biosciences) which is one of the ELISA methods. The measurement results (mean) of the production amount of IFN-γ and the standard deviation thereof (STDEV) are shown in FIG. 1.

NKT cells [6] = conditions: cited from earlier work; remark: listed apart in the source

In the case of `CCCCCCCCCCCCCCCCCCCCCCCCCC(=O)N[C@@H](COC1OC(COC)C(O)C(O)C1O)[C@H](O)[C@H](O)CCCCCCCCCCCCCC` (some centres unmarked) [RCAI-61], the “NKT cell activation / IFN-γ production” value (NKT cells [1]) is listed as “induces production of IFN-γ in large amounts”, the “activity in the system of mouse” value (NKT cells [2]) is listed as “strong activity” and the “activity in the system of human (in vitro)” value (NKT cells [3]) is listed as “strong activity”.
For `CCCCCCCCCCCCCCCCCCCCCCCCCC(=O)N[C@@H](CCC1OC(CO)C(O)C(O)C1O)[C@H](O)[C@H](O)CCCCCCCCCCCCCC` (stereo partly drawn) [α-C-GalCer], the “activation of mouse NKT cells and IFN-γ production” value (NKT cells of mouse) is given as “strongly activates NKT cells of mouse and preferentially produces IFN-γ” and the “activity in vitro on human NKT cells” value (human NKT cells) is given as “hardly shows activity”.
For `CCCCCCCCCCCCCCCCCCCCCCCCc1cn([C@@H](COC2OC(CO)C(O)C(O)C2O)[C@H](O)[C@H](O)CCCCCCCCCCCCCC)nn1` (some centres unmarked) [compound 7], the “type of cytokine production induced” value (NKT cells [4]) is given as “induce production of mostly Th2 type cytokines such as IL-4”.
In the case of `CCCCCCCCCCCCCCCCCCCCCCCCNC(=O)N[C@@H](CO[C@H]1O[C@H](COC)[C@H](O)[C@H](O)[C@H]1O)[C@H](O)[C@H](O)CCCCCCCCCCCCCC` [compound H, (2S,3S,4R)-1-(6-O-methyl-α-D-galactopyranosyloxy)-2-(tetracosylureido)-3,4-octadecanediol], the “IFN-γ production compared with α-GalCer (KRN7000)” value (NKT cells [5]) is reported as “selectively induced IFN-γ production in larger amounts than α-GalCer (KRN7000)”.
With `CCCCCCCCCCCCCCCCCCCCCCCCNC(=O)N[C@@H](CO[C@H]1O[C@H](CO)[C@H](O)[C@H](O)[C@H]1O)[C@H](O)[C@H](O)CCCCCCCCCCCCCC` [compound F, (2S,3S,4R)-1-(α-D-galactopyranosyloxy)-2-(tetracosylureido)-3,4-octadecanediol] the “IFN-γ production compared with α-GalCer (KRN7000)” value (NKT cells [5]) was “selectively induced IFN-γ production in larger amounts than α-GalCer (KRN7000)”.
For `CCCCCCCCCCCCCCCCCCCCCCCCC(F)(F)C(=O)N[C@@H](COC1OC(CO)C(O)C(O)C1O)[C@H](O)[C@H](O)CCCCCCCCCCCCCC` (some centres unmarked) [compound 6], the “type of cytokine production induced” value (NKT cells [4]) is given as “induce production of mostly Th2 type cytokines such as IL-4”.
In the case of `CCCCCCCCCCCCCCCCCCCCCCCCCC(=O)N[C@@H](COC1CC(CO)C(O)C(O)C1O)[C@H](O)[C@H](O)CCCCCCCCCCCCCC` (some centres unmarked) [RCAI-56], the “NKT cell activation / IFN-γ production” value (NKT cells [1]) is listed as “strongly activates NKT cells and induces production of a large amount of IFN-γ”, the “activity in the system of mouse” value (NKT cells [2]) is listed as “strong activity” and the “activity in the system of human (in vitro)” value (NKT cells [3]) is listed as “strong activity”.
For `CCCCCCCCCCCCCCCCS(=O)(=O)N[C@@H](COC1OC(CO)C(O)C(O)C1O)[C@H](O)[C@H](O)CCCCCCCCCCCCCC` (some centres unmarked) [compound 5], the “type of cytokine production induced” value (NKT cells [4]) is listed as “induce production of mostly Th2 type cytokines such as IL-4”.
In the case of `CCCCCCCCCCCCCCCCCCCCCCCCCC(=O)N[C@@H](COC1OC(CO)C(O)C(O)C1O)[C@H](O)[C@H](O)CCCCCCCCCCCCCC` (some centres unmarked) [KRN7000], the “immunostimulatory activity among synthesized analogs” value (NKT cells [6]) is given as “shows the strongest activity”.
